Assay results taken from ChEMBL document CHEMBL4308841, “Synthesis, in vitro antiproliferative activity, and kinase inhibitory effects of pyrazole-containing diarylureas and diarylamides” (Eur J Med Chem, 2018).

Experiments:
Type in all cases: functional, cell-based
NCI-H23 = assay: Growth inhibition of human NCI-H23 cells incubated for 48 hrs by sulforhodamine B assay; details: NCI-H23, 48 h
T47D = assay: Growth inhibition of human T47D cells incubated for 48 hrs by sulforhodamine B assay
NCI/ADR-RES = assay: Growth inhibition of human NCI/ADR-RES cells incubated for 48 hrs by sulforhodamine B assay; details: read-out: TGI
NCI-H522 = assay: Growth inhibition of human NCI-H522 cells incubated for 48 hrs by sulforhodamine B assay; details: NCI-H522, 48 h
NCI-H226 = assay: Growth inhibition of human NCI-H226 cells incubated for 48 hrs by sulforhodamine B assay; details: NCI-H226, 48 h
MCF7 = assay: Growth inhibition of human MCF7 cells incubated for 48 hrs by sulforhodamine B assay; details: MCF7, 48 h, read-out: TGI
MDA-MB-435 = assay: Growth inhibition of human MDA-MB-435 cells incubated for 48 hrs by sulforhodamine B assay; details: MDA-MB-435, 48 h
M14 = assay: Growth inhibition of human M14 cells incubated for 48 hrs by sulforhodamine B assay; details: M14, 48 h
COLO 205 = assay: Growth inhibition of human COLO205 cells incubated for 48 hrs by sulforhodamine B assay; details: COLO 205, 48 h
UACC-257 = assay: Growth inhibition of human UACC257 cells incubated for 48 hrs by sulforhodamine B assay; details: UACC-257, 48 h
Malme-3M = assay: Growth inhibition of human MALME-3M cells incubated for 48 hrs by sulforhodamine B assay
MDA-MB-468 = assay: Growth inhibition of human MDA-MB-468 cells incubated for 48 hrs by sulforhodamine B assay; details: MDA-MB-468, 48 h
SK-MEL-2 = assay: Growth inhibition of human SK-MEL-2 cells incubated for 48 hrs by sulforhodamine B assay; details: SK-MEL-2, 48 h
SF-295 = assay: Growth inhibition of human SF295 cells incubated for 48 hrs by sulforhodamine B assay; details: SF-295, 48 h
HL-60(TB) = assay: Growth inhibition of human HL-60(TB) cells incubated for 48 hrs by sulforhodamine B assay; details: HL-60, 48 h
HOP-92 = assay: Growth inhibition of human HOP92 cells incubated for 48 hrs by sulforhodamine B assay; details: HOP-92, 48 h
RPMI-8226 = assay: Growth inhibition of human RPMI8226 cells incubated for 48 hrs by sulforhodamine B assay; details: RPMI-8226, 48 h
KM12 = assay: Growth inhibition of human KM12 cells incubated for 48 hrs by sulforhodamine B assay; details: KM12, 48 h
SF-539 = assay: Growth inhibition of human SF539 cells incubated for 48 hrs by sulforhodamine B assay; details: SF-539, 48 h
HOP-62 = assay: Growth inhibition of human HOP62 cells incubated for 48 hrs by sulforhodamine B assay; details: HOP-62, 48 h
MDA-MB-231 = assay: Growth inhibition of human MDA-MB-231 cells incubated for 48 hrs by sulforhodamine B assay; details: MDA-MB-231, 48 h
PC-3 = assay: Growth inhibition of human PC3 cells incubated for 48 hrs by sulforhodamine B assay; details: PC-3, 48 h
CCRF-CEM = assay: Growth inhibition of human CCRF-CEM cells incubated for 48 hrs by sulforhodamine B assay
HT-29 = assay: Growth inhibition of human HT-29 cells incubated for 48 hrs by sulforhodamine B assay; details: HT-29, 48 h
IGROV-1 = assay: Growth inhibition of human IGROV1 cells incubated for 48 hrs by sulforhodamine B assay; details: IGROV-1, 48 h, read-out: TGI
UACC-62 = assay: Growth inhibition of human UACC62 cells incubated for 48 hrs by sulforhodamine B assay; details: UACC-62, 48 h
HCT-116 = assay: Growth inhibition of human HCT116 cells incubated for 48 hrs by sulforhodamine B assay; details: HCT-116, 48 h
SK-MEL-5 = assay: Growth inhibition of human SK-MEL-5 cells incubated for 48 hrs by sulforhodamine B assay; details: SK-MEL-5, 48 h
ACHN = assay: Growth inhibition of human ACHN cells incubated for 48 hrs by sulforhodamine B assay; details: read-out: TGI
MOLT-4 = assay: Growth inhibition of human MOLT4 cells incubated for 48 hrs by sulforhodamine B assay; details: MOLT-4, 48 h, read-out: TGI
TK-10 = assay: Growth inhibition of human TK10 cells incubated for 48 hrs by sulforhodamine B assay; details: TK-10, 48 h

CNC(=O)c1cc(Oc2ccc(NC(=O)Nc3ccc(Cl)c(C(F)(F)F)c3)cc2)ccn1 [SORAFENIB]
IC50 (NCI-H23): 2000 nM
TGI (NCI-H23; read-out: TGI): 5.01 µM
IC50 (T47D): 1580 nM
TGI (NCI/ADR-RES): 7.94 µM
IC50 (NCI-H522): 2000 nM
IC50 (NCI-H226): 2000 nM
TGI (MCF7): 7.94 µM
IC50 (MDA-MB-435): 1580 nM
IC50 (M14): 2000 nM
IC50 (COLO 205): 2000 nM
IC50 (UACC-257): 2000 nM
TGI (UACC-257; read-out: TGI): 5.01 µM
IC50 (Malme-3M): 2000 nM
IC50 (MDA-MB-468): 2000 nM
IC50 (SK-MEL-2): 2000 nM
IC50 (SF-295): 1580 nM
IC50 (HL-60(TB)): 1580 nM
TGI (HL-60(TB); read-out: TGI): 100 µM
IC50 (HOP-92): 1580 nM
TGI (HOP-92; read-out: TGI): 5.01 µM
IC50 (RPMI-8226): 1580 nM
IC50 (KM12): 1580 nM
IC50 (SF-539): 1580 nM
IC50 (HOP-62): 2000 nM
IC50 (MDA-MB-231): 1260 nM
IC50 (PC-3): 2000 nM
IC50 (CCRF-CEM): 2000 nM
IC50 (HT-29): 2000 nM
TGI (IGROV-1): 10 µM
IC50 (UACC-62): 1580 nM
IC50 (HCT-116): 1580 nM
IC50 (SK-MEL-5): 1580 nM
TGI (ACHN): 10 µM
TGI (MOLT-4): 100 µM
IC50 (TK-10): 3.98 µM
TGI (TK-10; read-out: TGI): 10 µM
